Like-named read-outs stand apart in the source and are kept apart here.
How the values were obtained:
HIV-1 84V90M = assay: microbe, parasite or virus in culture; assay type: cell-based
WT HIV-1 [1] = assay: microbe, parasite or virus in culture; assay type: cell-based
84V90M HIV protease = 84V90M HIV protease (Human immunodeficiency virus type 1 group M subtype B, UniProt P04585, I572V/L578M); assay: biochemical; parameters: species or system HIV-1
HIV-1 30N82I88D = assay: microbe, parasite or virus in culture; assay type: cell-based; conditions: Human immunodeficiency virus 1, read-out: Cell-based assay (MT-4) EC50/nM 30N82I88D
[2] = system: recombinant HIV-1 48V 54V 71V 82S; assay: microbe, parasite or virus in culture; assay type: cell-based
[3] = system: recombinant HIV-1 30N 50S 82I 88D; assay: microbe, parasite or virus in culture; assay type: cell-based
[4] = system: recombinant HIV-1 10I 48V 54V 82A; assay: microbe, parasite or virus in culture; assay type: cell-based
[5] = system: recombinant HIV-1 10I 48V 71V 82A 90M; assay: microbe, parasite or virus in culture; assay type: cell-based
[6] = system: recombinant HIV-1 46I 47V 50V; assay: microbe, parasite or virus in culture; assay type: cell-based
WT HIV-1 [7] = assay: microbe, parasite or virus in culture; assay type: cell-based; remark: listed apart in the source
HIV-1 48V54V82A = assay: microbe, parasite or virus in culture; assay type: cell-based
HIV-1 48V82A90M = assay: microbe, parasite or virus in culture; assay type: cell-based; conditions: Human immunodeficiency virus 1, read-out: Cell-based assay (MT-4) EC50/nM 48V82A90M
HIV-1 48V54V82S = assay: microbe, parasite or virus in culture; assay type: cell-based; conditions: Human immunodeficiency virus 1, read-out: Cell-based assay (MT-4) EC50/nM 48V54V82S
HIV-1 46I50V = assay: microbe, parasite or virus in culture; assay type: cell-based
[8] = system: recombinant HIV-1 10I 84V 71V 73S 90M; assay: microbe, parasite or virus in culture; assay type: cell-based
[9] = system: recombinant HIV-1 strains with resistance mutations in the protease gene; assay: Cross-Resistance Profile Assay, whole panel; assay type: cell-based; conditions: {}
[10] = system: wild-type HIV-1 strain IIIB; assay: microbe, parasite or virus in culture; assay type: cell-based; conditions: Human immunodeficiency virus 1, IIIB
[11] = Human immunodeficiency virus 1, read-out: Cell-based assay (MT-4) EC50/nM 84V90M
[12] = Human immunodeficiency virus 1, read-out: Cell-based assay (MT-4) EC50/nM WT
[13] = MT-4 cells, strain printed as 48V 54V 82S, read-out: Cell-based assay (MT-4) EC50/nM 48V 54V 82S
[14] = MT-4 cells, strain printed as 30N 82I 88D, read-out: Cell-based assay (MT-4) EC50/nM 30N 82I 88D
[15] = MT-4 cells, strain printed as 48V 54V 82A, read-out: Cell-based assay (MT-4) EC50/nM 48V 54V 82A
[16] = read-out: Cell-based assay (MT-4) EC50/nM 48V 82A 90M, MT-4 cells, strain printed as 48V 82A 90M
[17] = MT-4 cells, strain printed as 47I50V, read-out: Cell-based assay (MT-4) EC50/nM 47I 50V
[18] = Human immunodeficiency virus 1, read-out: Cell-based assay (MT-4) EC50/nM 48V54V82A
[19] = Human immunodeficiency virus 1, read-out: Cell-based assay (MT-4) EC50/nM 46I50V
[20] = Human immunodeficiency virus 1, MT4, read-out: Cell-based assay (MT-4) EC50/nM 84V 90M
[21] = Human immunodeficiency virus 1, MT4, read-out: Cell-based assay (MT-4) EC50/nM 48V 54V 82S
[22] = Human immunodeficiency virus 1, MT4, read-out: Cell-based assay (MT-4) EC50/nM 30N 82I 88D
[23] = Human immunodeficiency virus 1, MT4, read-out: Cell-based assay (MT-4) EC50/nM 48V 54V 82A
[24] = Human immunodeficiency virus 1, MT4, read-out: Cell-based assay (MT-4) EC50/nM 48V 82A 90M
[25] = Human immunodeficiency virus 1, MT4, read-out: Cell-based assay (MT-4) EC50/nM 47I 50V
[26] = Human immunodeficiency virus 1, MT4, read-out: Cell-based assay (MT-4) EC50/nM WT
[27] = read-out: Cell-based assay (MT-4) EC50/nM WT

## O=C(O)c1cccc(CN2C(=O)N(Cc3ccc(O)cc3)C(Cc3ccccc3)C(O)C(O)C2Cc2ccccc2)c1 (stereo not shown)
HIV-1 84V90M; [11]
  EC50: > 6000 nM
WT HIV-1 [1]; [12]
  EC50: 3060 nM
84V90M HIV protease
  IC50: 174 nM
HIV-1 30N82I88D
  EC50: 887 nM

## Nc1n[nH]c2ccc(CN3C(=O)N(Cc4cccc(C(=O)O)c4)C(Cc4ccccc4)C(O)C(O)C3Cc3ccccc3)cc12 (stereo not shown)
HIV-1 84V90M; [11]
  EC50: > 6000 nM
84V90M HIV protease
  IC50: 27 nM
HIV-1 30N82I88D
  EC50: > 6000 nM

## CCOP(=O)(COc1ccc(CC2C(O)C(O)C(Cc3ccccc3)N(Cc3ccccc3)C(=O)N2Cc2ccccc2)cc1)OCC (stereo not shown)
[2]; [13]
  EC50: 1900 nM
[3]; [14]
  EC50: 293 nM
[4]; [15]
  EC50: 1440 nM
[5]; [16]
  EC50: 3290 nM
[6]; [17]
  EC50: 589 nM
WT HIV-1 [7]; MT-4 cells, WT, read-out: Cell-based assay (MT-4) EC50/nM WT
  EC50: 107 nM

## Nc1n[nH]c2ccc(CN3C(=O)N(CCCCOCP(=O)(O)O)C(Cc4ccccc4)C(O)C(O)C3Cc3ccccc3)cc12 (stereo not shown) [CH2 OCH2PO3H2]
HIV-1 84V90M; [11]
  EC50: > 4240 nM
WT HIV-1 [1]; [12]
  EC50: 1760 nM
84V90M HIV protease
  IC50: 205 nM

## CCOP(=O)(COCCCCN1C(=O)N(Cc2ccc3[nH]nc(N)c3c2)C(Cc2ccccc2)C(O)C(O)C1Cc1ccccc1)OCC (stereo not shown) [CH2OCH2PO3Et2]
HIV-1 84V90M; [11]
  EC50: 3300 nM
WT HIV-1 [1]; [12]
  EC50: 119 nM
84V90M HIV protease
  IC50: 123 nM
HIV-1 48V54V82A; [18]
  EC50: 430 nM
HIV-1 30N82I88D
  EC50: 267 nM

## CCOP(=O)(COc1ccc(CC2C(O)C(O)C(Cc3ccccc3)N(Cc3ccc(O)cc3)C(=O)N2Cc2ccc(O)cc2)cc1)OCC (stereo not shown) [H, Ph-pOH, OCH2PO3Et2]
HIV-1 48V82A90M
  EC50: 126 nM
HIV-1 48V54V82S
  EC50: 198 nM
HIV-1 48V54V82A; [18]
  EC50: 128 nM
HIV-1 46I50V; [19]
  EC50: 144 nM
HIV-1 30N82I88D
  EC50: 90 nM

## CCOP(=O)(COc1ccc(CC2C(O)C(O)C(Cc3ccccc3)N(Cc3cccc(N)c3)C(=O)N2Cc2cccc(N)c2)cc1)OCC (stereo not shown) [H/Ph-mNH2/OCH2PO3Et2]
[8]; [20]
  EC50: 328 nM
[2]; [21]
  EC50: 146 nM
[3]; [22]
  EC50: 16 nM
[4]; [23]
  EC50: 168 nM
[5]; [24]
  EC50: 74 nM
[6]; [25]
  EC50: 46 nM
WT HIV-1 [7]; [26]
  EC50: 65 nM

## CCOP(=O)(COc1ccc(CC2C(O)C(O)C(Cc3ccccc3)N(Cc3ccc(O)cc3)C(=O)N2Cc2ccc(O)cc2)cc1)OCC (stereo not shown) [H/Ph-pOH/OCH2PO3Et2]
[2]; [21]
  EC50: 222 nM
[3]; [22]
  EC50: 90 nM
[4]; [23]
  EC50: 128 nM
[5]; [24]
  EC50: 146 nM
[6]; [25]
  EC50: 144 nM
WT HIV-1 [7]; [26]
  EC50: 65 nM

## O=C1N(Cc2ccccc2)C(Cc2ccccc2)C(O)C(O)C(Cc2ccc(O)cc2)N1Cc1ccccc1 (stereo not shown) [H/Ph/OH]
[8]; [20]
  EC50: > 6000 nM
[3]; [22]
  EC50: 2950 nM
[4]; [23]
  EC50: > 6000 nM
WT HIV-1 [7]; [26]
  EC50: 1260 nM

## CC(C)(C)NC(=O)[C@@H]1CN(Cc2cccnc2)CCN1C[C@@H](O)C[C@@H](Cc1ccccc1)C(=O)N[C@H]1c2ccccc2C[C@H]1O [Indinavir, reference compound]
[9]
  Total No. of Resistant Viruses: 8
[10]
  EC50: < 50 nM

## CCOP(=O)(COCCCN1C(=O)N(Cc2ccc3[nH]nc(N)c3c2)C(Cc2ccccc2)C(O)C(O)C1Cc1ccccc1)OCC (stereo not shown) [OCH2PO3Et2]
HIV-1 84V90M; [11]
  EC50: > 6000 nM
WT HIV-1 [1]; [12]
  EC50: 356 nM
84V90M HIV protease
  IC50: 157 nM
HIV-1 48V54V82A; [18]
  EC50: 175 nM
HIV-1 46I50V; [19]
  EC50: 138 nM
HIV-1 30N82I88D
  EC50: 145 nM

## Nc1n[nH]c2ccc(CN3C(=O)N(CCCOCP(=O)(O)O)C(Cc4ccccc4)C(O)C(O)C3Cc3ccccc3)cc12 (stereo not shown) [OCH2PO3H2]
HIV-1 84V90M; MT-4, 84V90M, read-out: Cell-based assay (MT-4) EC50/nM 84V90M
  EC50: > 6000 nM
WT HIV-1 [1]; [27]
  EC50: 1070 nM

## CCOP(=O)(CCNC(=O)Oc1ccc(CC2C(O)C(O)C(Cc3ccc(OC)cc3)N(Cc3cccc(N)c3)C(=O)N2Cc2cccc(N)c2)cc1)OCC (stereo not shown) [OCH3/Ph-mNH2/OCONH(CH2)2PO3Et2]
[8]; read-out: Cell-based assay (MT-4) EC50/nM 84V 90M, MT-4 cells, strain printed as 84V 90M
  EC50: 2260 nM
[2]; [13]
  EC50: 214 nM
[3]; [14]
  EC50: 77 nM
[4]; [15]
  EC50: 262 nM
[5]; [16]
  EC50: 215 nM
[6]; [17]
  EC50: 184 nM

## CCOP(=O)(COc1ccc(CC2C(O)C(O)C(Cc3ccc(OC)cc3)N(Cc3ccc(O)cc3)C(=O)N2Cc2ccc(O)cc2)cc1)OCC (stereo not shown) [OCH3/Ph-pOH/OCH2PO3Et2]
[8]; [20]
  EC50: 148 nM
[2]; [21]
  EC50: 129 nM
[3]; [22]
  EC50: 25 nM
[4]; [23]
  EC50: 70 nM
[5]; [24]
  EC50: 54 nM
[6]; [25]
  EC50: 90 nM
WT HIV-1 [7]; [26]
  EC50: 30 nM

## CCOP(=O)(COc1ccc(CC2C(O)C(O)C(Cc3ccc(O)cc3)N(Cc3ccc(O)cc3)C(=O)N2Cc2ccc(O)cc2)cc1)OCC (stereo not shown) [OH, Ph-pOH, OCH2PO3Et2]
HIV-1 84V90M; [11]
  EC50: 1910 nM
WT HIV-1 [1]; [12]
  EC50: 285 nM
84V90M HIV protease
  IC50: 18 nM
HIV-1 48V54V82A; [18]
  EC50: 986 nM
HIV-1 46I50V; [19]
  EC50: 1110 nM
HIV-1 30N82I88D
  EC50: 211 nM

## CC(C)c1nc(CN(C)C(=O)N[C@H](C(=O)N[C@@H](Cc2ccccc2)C[C@H](O)[C@H](Cc2ccccc2)NC(=O)OCc2cncs2)C(C)C)cs1 [Ritonavir, reference compound]
[9]
  Total No. of Resistant Viruses: 10
[10]
  EC50: < 50 nM

## CC(C)(C)NC(=O)[C@@H]1C[C@@H]2CCCC[C@@H]2CN1C[C@@H](O)[C@H](Cc1ccccc1)NC(=O)[C@H](CC(N)=O)NC(=O)c1ccc2ccccc2n1 [Saquinavir, reference compound]
[9]
  Total No. of Resistant Viruses: 4
[10]
  EC50: < 50 nM

## CCOP(=O)(CCCNC(=O)c1cccc(CN2C(=O)N(Cc3ccc4[nH]nc(N)c4c3)C(Cc3ccccc3)C(O)C(O)C2Cc2ccccc2)c1)OCC (stereo not shown) [drawing 809]
HIV-1 84V90M; [11]
  EC50: 476 nM
WT HIV-1 [1]; [12]
  EC50: 188 nM
84V90M HIV protease
  IC50: 10 nM
HIV-1 48V54V82A; [18]
  EC50: 240 nM
HIV-1 46I50V; [19]
  EC50: 319 nM
HIV-1 30N82I88D
  EC50: 666 nM

## Nc1n[nH]c2ccc(CN3C(=O)N(Cc4cccc(OCc5ccccc5)c4)C(Cc4ccccc4)C(O)C(O)C3Cc3ccccc3)cc12 (stereo not shown) [m-OBn]
WT HIV-1 [1]; [27]
  EC50: 218 nM
HIV-1 48V54V82A; MT-4, 48V54V82A, read-out: Cell-based assay (MT-4) EC50/nM 48V54V82A
  EC50: 709 nM
HIV-1 46I50V; MT-4, 46I50V, read-out: Cell-based assay (MT-4) EC50/nM 46I50V
  EC50: 601 nM

## O=C1N(Cc2ccccc2)[C@H](Cc2ccccc2)[C@H](O)[C@@H](O)[C@@H](Cc2ccccc2)N1Cc1ccc2[nH]ncc2c1 [reference compound]
HIV-1 84V90M; [11]
  EC50: 2310 nM
WT HIV-1 [1]; [12]
  EC50: 193 nM
84V90M HIV protease
  IC50: 43.3 nM
HIV-1 48V54V82A; [18]
  EC50: 705 nM
HIV-1 46I50V; [19]
  EC50: 772 nM
HIV-1 30N82I88D
  EC50: 281 nM
